Data as given in patent publication US8202910B2 (Sequella, Inc., priority 2006, dated 2012).
Values after ≈ are worked out from the molar mass of the structure shown. Where two headings read alike, the source gives them in different places.

Columns and labels:
in vivo = assay: in vivo; design: species or system mice; details: mouse
Description: Initially, analytical methods for determination of the compounds had been developed that allowed to carry out all the PK experiments, sec FIG. 29. Here is a brief description of the experiment: (1) plasma spiked with tested compounds and 10 uL of Terfenadine or plasma samples (200 uL) added; (2) ACN (2 mL) added to precipitate protein and spin at 2,500 rpm; (3) evaporate supernatant to dryness; (4) add 200 uL of the diluting solvent: methanol (with 0.1% of trifluoroacetic acid): ammonium acetate (80/20); (5) vortex, spin, and use supernatant; (6) run LC/MS/MS on Sciex API 3000.
Pilot PK study of the compounds 37, 59, and 109 in mice was conducted using a cassette dosing: all the three analogs were formulated together in saline at 1.5 mg/mL, and administered to mice simultaneously orally at 25 mg/kg, peritoneally at 6 mg/kg, and intravenously. […] Obtained data are presented on FIGS. 30, 31, and 32 (tested compounds were studied under the NCI′ indexation NSC) and summarized in Table 19.

M. tuberculosis = assay: Minimum Bactericidal Concentration (MBC); type: cell-based; details: Mycobacterium tuberculosis
M. marinum = assay: Spectrum of activity MIC, MOTT, agar proportion method; type: cell-based; details: Mycobacterium marinum; three strains
[1] = tested on: muscarinic receptor (M, non-selective); assay: CEREP receptor binding, muscarinic M; details: tested at 10 μM
Excerpt: (§1) In vitro testing for safety pharmacology and early ADMET (Absorption, Distribution, Metabolism, Excretion, Toxicity) studies of compound 109 were contracted out to CEREP (15318 NE 95th Street, Redmond, Wash., 98052, USA www.cerep.com) under a service agreement and included evaluation of inhibitory binding to a panel of 27 standard receptors and three transporters (See FIG. 60 (Table 31) and FIG. 61 (Table 32)) which included: adenosine receptors (A1 and A2A), adrenergic receptors (alpha 1, alpha 2, beta 1), angiotensin II receptor (AT1), benzodiazapene receptor (BZD), bradykinin receptor (B2), cholecystokinin receptor (CCK1), dopamine receptors (D1, D2S), endothelin receptor (ETA), GABA receptor (GABA), glutamate receptor (NMDA), histamine receptor (H1 central), melanocortin receptor (MC4), muscarinic receptor (M, non-selective), neurokinin receptor (NK1), neuropeptide Y receptor (Y), nicotinic receptor (neuronal, alpha-BGTX-insensitive), opiate receptor (non-selective opiate), orphanin receptor (ORL1), phencyclidine receptor (PCP), serotonin receptor (5-HT), sigma receptor (sigma non-selective), steroid receptor (glucocorticoid receptor, GR), and NE, DA, and 5-HT transporters.
(§2) The specific ligand binding to the receptors is defined as the difference between the total binding and the nonspecific binding determined in the presence of an excess of unlabelled ligand.

M. tuberculosis H37Rv = assay: In vivo efficacy, mice infected i.v. with M. tuberculosis, CFU in spleen and lungs; design: species or system C57BL/6 mice
[2] = tested on: RIF^R M. tuberculosis strain 3185; type: cell-based
[3] = target: T1, Norepinephrine NE transporter (Homo sapiens, UniProt P23975); assay: CEREP transporter binding, NE; details: tested at 10 μM; read-out: inhibition of control specific binding
T1 construct: CEREP (contract testing)
T1 sequence (P23975 whole entry): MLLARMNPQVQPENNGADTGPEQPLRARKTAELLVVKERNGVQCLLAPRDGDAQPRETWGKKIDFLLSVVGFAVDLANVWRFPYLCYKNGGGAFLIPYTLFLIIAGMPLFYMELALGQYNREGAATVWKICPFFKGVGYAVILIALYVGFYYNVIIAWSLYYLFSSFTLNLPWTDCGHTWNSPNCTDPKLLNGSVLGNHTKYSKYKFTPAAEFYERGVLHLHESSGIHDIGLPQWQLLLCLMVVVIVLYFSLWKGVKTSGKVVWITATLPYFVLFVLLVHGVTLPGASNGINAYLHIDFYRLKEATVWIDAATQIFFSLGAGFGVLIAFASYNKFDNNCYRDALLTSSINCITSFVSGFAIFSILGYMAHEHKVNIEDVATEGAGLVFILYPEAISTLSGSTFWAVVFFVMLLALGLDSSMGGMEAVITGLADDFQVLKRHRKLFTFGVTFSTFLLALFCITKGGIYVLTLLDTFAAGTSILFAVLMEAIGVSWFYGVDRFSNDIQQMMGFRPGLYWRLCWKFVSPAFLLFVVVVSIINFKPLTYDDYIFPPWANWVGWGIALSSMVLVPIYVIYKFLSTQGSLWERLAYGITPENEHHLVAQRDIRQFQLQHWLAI
Excerpt: as §1, §2

M. bovis = assay: microbe, parasite or virus in culture; type: cell-based; details: Mycobacterium tuberculosis variant bovis
M. bovis BCG = assay: microbe, parasite or virus in culture; type: cell-based; details: Mycobacterium tuberculosis variant bovis BCG
[4] = Metabolism by human liver microsomes; type: in vitro ADME; details: after 40 min incubation
Excerpt: Two of the groups contained oxidized metabolites. […] Based on the finding that SQ109 was metabolized rapidly by CYP, it is possible that its antimycobacterial activity may come from one of its metabolites. It is conceivable that SQ109 is a prodrug and requires activation by mycobacterial CYP. We speculate that when SQ109 is used in combination with rifampicin, the latter induces certain CYP activity within the Mycobacteria. Elevated CYP activity activates the SQ109 prodrug more efficiently, resulting in an apparent synergistic activity of the two drugs.

[5] = tested on: RIF^R M. tuberculosis strain 2482; type: cell-based
dopamine receptor D2S = target: T2, dopamine receptor D2S (Homo sapiens, UniProt P14416); assay: CEREP receptor binding, D2S; details: tested at 10 μM; read-out: inhibition of control specific binding
T2 construct: CEREP (contract testing)
T2 sequence (P14416 1-414 isoform P14416-2): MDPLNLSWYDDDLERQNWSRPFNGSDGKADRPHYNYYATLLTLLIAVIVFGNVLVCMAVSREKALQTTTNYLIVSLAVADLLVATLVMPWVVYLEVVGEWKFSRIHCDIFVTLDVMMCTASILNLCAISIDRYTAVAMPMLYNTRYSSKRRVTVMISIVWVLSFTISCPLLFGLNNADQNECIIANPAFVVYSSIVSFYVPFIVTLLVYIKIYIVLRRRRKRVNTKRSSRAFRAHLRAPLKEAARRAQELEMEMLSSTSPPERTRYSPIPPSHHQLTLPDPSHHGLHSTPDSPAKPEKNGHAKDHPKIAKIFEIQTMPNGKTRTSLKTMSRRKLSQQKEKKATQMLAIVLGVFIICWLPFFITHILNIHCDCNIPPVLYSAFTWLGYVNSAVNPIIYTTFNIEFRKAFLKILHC
Excerpt: as §1, §2

M. smegmatis = assay: Spectrum (unpublished data); type: cell-based
[6] = tested on: opiate receptor (non-selective opiate); assay: CEREP receptor binding, opiate; details: tested at 10 μM
Excerpt: as §1, §2

wild type of M.tb = assay: MIC, secondary screening, wild type; type: cell-based, Mycobacterium tuberculosis; details: Mycobacterium tuberculosis, WT

Compound: CC(C)=CCC/C(C)=C/CNCCNC1C2CC3CC(C2)CC1C3 (stereo not shown) [Compound 109, N-Geranyl-N′-(2-adamanthyl)ethane-1,2-diamine]
- AUC (in vivo; ip, 6 mg/kg): 1100 ng·h/mL
- Cmax (in vivo; ip, 6 mg/kg): 935 ng/mL
- Urine excretion (%) (in vivo; ip, 6 mg/kg): <0.01%
- bioavailability (in vivo; ip, 6 mg/kg): 55%
- half-life (in vivo; ip, 6 mg/kg): 4.4 h
- AUC (in vivo; iv, 3 mg/kg): 1010 ng·h/mL
- Cmax (in vivo; iv, 3 mg/kg): 1190 ng/mL
- Urine excretion (%) (in vivo; iv, 3 mg/kg): .92%
- clearance (in vivo; iv, 3 mg/kg): 54 mL/min/kg
- half-life (in vivo; iv, 3 mg/kg): 5.5 h
- AUC (in vivo; po, 25 mg/kg): 655 ng·h/mL
- Cmax (in vivo; po, 25 mg/kg): 227 ng/mL
- bioavailability (in vivo; po, 25 mg/kg): 2.7%
- MBC (M. tuberculosis): 0.313 µg/mL (≈ 0.947 µM)
- MIC (M. marinum): 8 µg/mL (≈ 24.2 µM)
- inhibition of control specific binding [1]: 96%
- difference with untreated control, spleen and lung (M. tuberculosis H37Rv; 0.1 mg/kg after 4 weeks of therapy, 5×10^6 CFU): minimal but sufficient difference with untreated control
- activity in the spleen compared with EMB (M. tuberculosis H37Rv; 1 mg/kg and 10 mg/kg, 5×10^5 CFU, chemotherapy from day 20): equal to that of EMB at 100 mg/kg
- activity in the lung compared with EMB (M. tuberculosis H37Rv; 10 mg/kg after 4 and 6 weeks, 5×10^5 CFU): more effective than EMB at 100 mg/kg
- activity in spleen and lung compared with EMB (M. tuberculosis H37Rv; 10 mg/kg and 25 mg/kg, shorter model, 5×10^6 CFU, 4 weeks): equal to that of EMB at 100 mg/kg
- activity (CFUs in spleen and lungs) compared with ethambutol (M. tuberculosis H37Rv; doses 1 and 10 mg/kg, orally by gavage): equal to that of ethambutol at 100 mg/kg
- growth inhibition [2]: greater than 99%
- x/y quotient ([2]; 0.5 MIC SQ109 + rifampicin 4 mg/L): 0.64
- x/y quotient ([2]; 0.5 MIC SQ109 + rifampicin 8 mg/L): 0.48
- x/y quotient ([2]; 0.5 MIC SQ109 + rifampicin 12 mg/L): 0.40
- x/y quotient ([2]; 0.5 MIC SQ109 + rifampicin 16 mg/L): 0.35
- inhibition at 10 µM [3]: 87%
- MIC (M. bovis): 0.25 µg/mL (≈ 0.756 µM)
- MIC (M. bovis BCG): 0.5 µg/mL (≈ 1.51 µM)
- SQ109 remaining [4]: 8%
- x/y quotient ([5]; 0.25 MIC SQ109 (0.08 mg/L) + 10 mg/L rifampicin): 0.66
- x/y quotient ([5]; 0.5 MIC SQ109 + rifampicin 25 mg/L): 0.497
- x/y quotient ([5]; 0.5 MIC SQ109 + rifampicin 50 mg/L): 0.39
- x/y quotient ([5]; 0.5 MIC SQ109 + rifampicin 100 mg/L): 0.33
- growth inhibition ([5]; 0.5 MIC SQ109 added to 100 mg/L rifampicin): more than 99%
- inhibition at 10 µM (dopamine receptor D2S): 73%
- activity (M. smegmatis): much less active
- inhibition of control specific binding [6]: 58%
- MIC (wild type of M.tb; value in brackets, read-out: MIC (or uM)): 0.18 µM
- MIC (wild type of M.tb; EMB, RL241, Cmpd#59 as 2HCl salt, Cmpd#109 as 2CF3COOH salt, read-out: MIC): 0.1 µg/mL
